Test results: ChEMBL document CHEMBL1201862, “PubChem BioAssay data set” (2004)
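Method: 48-hour compound exposure of cells in 96-well plates, five concentrations, linear interpolation of endpoints. GI50 marks 50% less growth.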 The source made the active and inactive calls. Rule as the data show it: active = GI50 up to about 1.1 µM and inactive = higher.

Assays:
Test in all cases: NCI anticancer screen, dose series, 48 h
[1] = test system: A498
[2] = test system: HOP-62
[3] = test system: HL-60
[4] = test system: OVCAR-3
[5] = test system: HCT-116
[6] = test system: M14
[7] = test system: MOLT-4
[8] = test system: SK-MEL-28
[9] = test system: HOP-92
[10] = test system: ACHN
[11] = test system: T47D
[12] = test system: MDA-MB-435
[13] = test system: RPMI-8226
[14] = test system: DU-145
[15] = test system: SK-OV-3
[16] = test system: SW-620
[17] = test system: A549
[18] = test system: CCRF-CEM
[19] = test system: SN12C
[20] = test system: SK-MEL-2
[21] = test system: Hs-578T
[22] = test system: KM12
[23] = test system: MDA-N
[24] = test system: MCF7
[25] = test system: K562
[26] = test system: TK-10
[27] = test system: HT-29
[28] = test system: RXF 393
[29] = test system: COLO 205
[30] = test system: SR
[31] = test system: CAKI-1
[32] = test system: SF-268
[33] = test system: SK-MEL-5
[34] = test system: MDA-MB-231
[35] = test system: UACC-257
[36] = test system: UO-31
[37] = test system: SF-295
[38] = test system: SNB-19
[39] = test system: NCI-H522
[40] = test system: 786-0
[41] = test system: U-251
[42] = test system: NCI-H226
[43] = test system: LOX IMVI
[44] = test system: Malme-3M
[45] = test system: PC-3
[46] = test system: OVCAR-5
[47] = test system: OVCAR-8
[48] = test system: EKVX
[49] = test system: OVCAR-4
[50] = test system: IGROV-1
[51] = test system: SNB-75
[52] = test system: NCI/ADR-RES
[53] = test system: UACC-62
[54] = test system: NCI-H23
[55] = test system: HCC 2998
[56] = test system: SF-539
[57] = test system: HCT-15
[58] = test system: NCI-H460

Structure (SMILES): COC1=CC(=O)C(O)=C(C[C@@]2(C)[C@@H]3CCC[C@H](COC(=O)CCCCCNC(=O)OC(C)(C)C)[C@@]3(C)CC[C@@H]2C)C1=O
- GI50 [1]: > 10 µM (inactive)
- GI50 [2]: 5.08 µM (inactive)
- GI50 [3]: 3.04 µM (inactive)
- GI50 [4]: 5.92 µM (inactive)
- GI50 [5]: 6.55 µM (inactive)
- GI50 [6]: 6.56 µM (inactive)
- GI50 [7]: 3.1 µM (inactive)
- GI50 [8]: 8.63 µM (inactive)
- GI50 [9]: 3.9 µM (inactive)
- GI50 [10]: 3.32 µM (inactive)
- GI50 [11]: 4.45 µM (inactive)
- GI50 [12]: > 10 µM (inactive)
- GI50 [13]: 3.54 µM (inactive)
- GI50 [14]: > 10 µM (inactive)
- GI50 [15]: > 10 µM (inactive)
- GI50 [16]: 6.34 µM (inactive)
- GI50 [17]: 3.59 µM (inactive)
- GI50 [18]: 1.09 µM (active)
- GI50 [19]: > 10 µM (inactive)
- GI50 [20]: > 10 µM (inactive)
- GI50 [21]: 4.52 µM (inactive)
- GI50 [22]: > 10 µM (inactive)
- GI50 [23]: > 10 µM (inactive)
- GI50 [24]: 4.22 µM (inactive)
- GI50 [25]: 3.86 µM (inactive)
- GI50 [26]: > 10 µM (inactive)
- GI50 [27]: 5.12 µM (inactive)
- GI50 [28]: 3.67 µM (inactive)
- GI50 [29]: 4.08 µM (inactive)
- GI50 [30]: 5.22 µM (inactive)
- GI50 [31]: 4.61 µM (inactive)
- GI50 [32]: 5.85 µM (inactive)
- GI50 [33]: 3.77 µM (inactive)
- GI50 [34]: > 10 µM (inactive)
- GI50 [35]: > 10 µM (inactive)
- GI50 [36]: 6.47 µM (inactive)
- GI50 [37]: 5.28 µM (inactive)
- GI50 [38]: 3.77 µM (inactive)
- GI50 [39]: 3.05 µM (inactive)
- GI50 [40]: > 10 µM (inactive)
- GI50 [41]: 3.9 µM (inactive)
- GI50 [42]: 8.45 µM (inactive)
- GI50 [43]: > 10 µM (inactive)
- GI50 [44]: 5.9 µM (inactive)
- GI50 [45]: > 10 µM (inactive)
- GI50 [46]: > 10 µM (inactive)
- GI50 [47]: 6.73 µM (inactive)
- GI50 [48]: 8.28 µM (inactive)
- GI50 [49]: > 10 µM (inactive)
- GI50 [50]: 3.61 µM (inactive)
- GI50 [51]: 5.11 µM (inactive)

Structure (SMILES): Cc1nc(O)nc(N(CCO)/N=C/c2ccc(Cl)cc2)c1C(=O)Nc1ccc(Cl)cc1
- GI50 [1]: > 100 µM (inactive)
- GI50 [2]: 59.7 µM (inactive)
- GI50 [3]: > 100 µM (inactive)
- GI50 [4]: > 100 µM (inactive)
- GI50 [5]: 57.8 µM (inactive)
- GI50 [6]: 87.3 µM (inactive)
- GI50 [7]: > 100 µM (inactive)
- GI50 [52]: > 100 µM (inactive)
- GI50 [8]: > 100 µM (inactive)
- GI50 [9]: > 100 µM (inactive)
- GI50 [10]: > 100 µM (inactive)
- GI50 [11]: 98.4 µM (inactive)
- GI50 [53]: > 100 µM (inactive)
- GI50 [12]: > 100 µM (inactive)
- GI50 [14]: > 100 µM (inactive)
- GI50 [15]: 58.2 µM (inactive)
- GI50 [16]: > 100 µM (inactive)
- GI50 [17]: > 100 µM (inactive)
- GI50 [18]: > 100 µM (inactive)
- GI50 [19]: > 100 µM (inactive)
- GI50 [20]: 34.4 µM (inactive)
- GI50 [21]: 32.5 µM (inactive)
- GI50 [54]: > 100 µM (inactive)
- GI50 [22]: > 100 µM (inactive)
- GI50 [55]: > 100 µM (inactive)
- GI50 [23]: > 100 µM (inactive)
- GI50 [24]: > 100 µM (inactive)
- GI50 [25]: > 100 µM (inactive)
- GI50 [26]: 85.3 µM (inactive)
- GI50 [27]: > 100 µM (inactive)
- GI50 [28]: 24.7 µM (inactive)
- GI50 [29]: > 100 µM (inactive)
- GI50 [31]: > 100 µM (inactive)
- GI50 [32]: 89.7 µM (inactive)
- GI50 [33]: > 100 µM (inactive)
- GI50 [34]: 36.7 µM (inactive)
- GI50 [56]: > 100 µM (inactive)
- GI50 [35]: > 100 µM (inactive)
- GI50 [36]: > 100 µM (inactive)
- GI50 [37]: > 100 µM (inactive)
- GI50 [38]: 83.9 µM (inactive)
- GI50 [39]: > 100 µM (inactive)
- GI50 [40]: > 100 µM (inactive)
- GI50 [41]: 21.3 µM (inactive)
- GI50 [42]: 72.6 µM (inactive)
- GI50 [43]: > 100 µM (inactive)
- GI50 [44]: 26.1 µM (inactive)
- GI50 [45]: > 100 µM (inactive)
- GI50 [46]: > 100 µM (inactive)
- GI50 [57]: > 100 µM
- GI50 [47]: 99.5 µM (inactive)
- GI50 [48]: > 100 µM (inactive)
- GI50 [49]: > 100 µM (inactive)
- GI50 [50]: > 100 µM (inactive)
- GI50 [58]: > 100 µM (inactive)
- GI50 [51]: 55.2 µM (inactive)
